IC50 data for 1 compound are collected here from paper PMC3755730 (The Journal of neuroscience : the official journal of the …, 2013).

The target in assay [1] is N2B (GluN2B), in N1/N2B (B-type) NMDA receptor (Mus musculus, UniProt Q01097). The experiment in a line: whole-cell patch clamp, EPSC dose-inhibition in N2A knockout neurons. The class given is cell-based.
The target of assay [2] is N2A (GluN2A), in N1/N2A (A-type) NMDA receptor (Mus musculus, UniProt P35436). The experiment in a line: whole-cell patch clamp, EPSC dose-inhibition in N2B knockout neurons. The class given is cell-based.
Sequence of N2A (GluN2A), in N1/N2A (A-type) NMDA receptor (P35436 23-1464, other chains not shown): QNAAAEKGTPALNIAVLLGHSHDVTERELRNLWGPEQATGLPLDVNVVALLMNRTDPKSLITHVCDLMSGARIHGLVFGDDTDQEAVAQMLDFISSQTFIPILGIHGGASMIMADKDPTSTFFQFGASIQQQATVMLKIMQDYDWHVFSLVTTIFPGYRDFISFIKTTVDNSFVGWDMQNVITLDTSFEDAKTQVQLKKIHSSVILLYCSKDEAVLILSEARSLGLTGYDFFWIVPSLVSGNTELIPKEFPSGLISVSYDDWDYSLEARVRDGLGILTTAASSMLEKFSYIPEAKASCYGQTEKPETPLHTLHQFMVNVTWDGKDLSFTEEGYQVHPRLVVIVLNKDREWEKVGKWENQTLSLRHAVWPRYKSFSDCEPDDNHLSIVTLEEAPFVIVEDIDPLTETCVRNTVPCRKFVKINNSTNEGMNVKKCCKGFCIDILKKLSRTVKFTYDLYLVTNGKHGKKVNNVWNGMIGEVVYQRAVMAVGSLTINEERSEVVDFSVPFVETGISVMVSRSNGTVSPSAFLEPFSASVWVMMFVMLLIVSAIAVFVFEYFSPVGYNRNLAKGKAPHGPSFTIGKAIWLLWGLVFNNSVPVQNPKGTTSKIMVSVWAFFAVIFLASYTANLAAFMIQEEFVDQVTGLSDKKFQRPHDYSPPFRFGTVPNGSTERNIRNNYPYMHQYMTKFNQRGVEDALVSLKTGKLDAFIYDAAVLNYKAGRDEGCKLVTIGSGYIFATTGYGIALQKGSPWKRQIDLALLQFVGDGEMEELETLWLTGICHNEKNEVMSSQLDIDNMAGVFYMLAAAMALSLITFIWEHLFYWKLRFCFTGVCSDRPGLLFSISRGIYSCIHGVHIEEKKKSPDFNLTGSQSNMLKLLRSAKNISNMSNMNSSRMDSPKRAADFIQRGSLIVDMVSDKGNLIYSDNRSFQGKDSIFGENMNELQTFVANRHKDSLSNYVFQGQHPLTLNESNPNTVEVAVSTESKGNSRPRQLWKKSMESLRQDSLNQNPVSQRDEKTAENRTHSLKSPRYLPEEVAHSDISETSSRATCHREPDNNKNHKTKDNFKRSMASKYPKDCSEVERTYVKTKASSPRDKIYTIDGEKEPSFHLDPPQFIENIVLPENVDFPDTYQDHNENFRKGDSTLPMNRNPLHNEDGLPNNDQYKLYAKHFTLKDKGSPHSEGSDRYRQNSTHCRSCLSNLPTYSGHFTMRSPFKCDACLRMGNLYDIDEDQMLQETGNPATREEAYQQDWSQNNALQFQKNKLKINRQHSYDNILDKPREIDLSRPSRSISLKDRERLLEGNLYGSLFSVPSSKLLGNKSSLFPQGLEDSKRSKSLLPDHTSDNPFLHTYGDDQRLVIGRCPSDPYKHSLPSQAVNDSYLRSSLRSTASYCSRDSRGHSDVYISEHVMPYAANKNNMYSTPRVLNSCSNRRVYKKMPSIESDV

Sequence of N2B (GluN2B), in N1/N2B (B-type) NMDA receptor (Q01097 27-1482, other chains not shown): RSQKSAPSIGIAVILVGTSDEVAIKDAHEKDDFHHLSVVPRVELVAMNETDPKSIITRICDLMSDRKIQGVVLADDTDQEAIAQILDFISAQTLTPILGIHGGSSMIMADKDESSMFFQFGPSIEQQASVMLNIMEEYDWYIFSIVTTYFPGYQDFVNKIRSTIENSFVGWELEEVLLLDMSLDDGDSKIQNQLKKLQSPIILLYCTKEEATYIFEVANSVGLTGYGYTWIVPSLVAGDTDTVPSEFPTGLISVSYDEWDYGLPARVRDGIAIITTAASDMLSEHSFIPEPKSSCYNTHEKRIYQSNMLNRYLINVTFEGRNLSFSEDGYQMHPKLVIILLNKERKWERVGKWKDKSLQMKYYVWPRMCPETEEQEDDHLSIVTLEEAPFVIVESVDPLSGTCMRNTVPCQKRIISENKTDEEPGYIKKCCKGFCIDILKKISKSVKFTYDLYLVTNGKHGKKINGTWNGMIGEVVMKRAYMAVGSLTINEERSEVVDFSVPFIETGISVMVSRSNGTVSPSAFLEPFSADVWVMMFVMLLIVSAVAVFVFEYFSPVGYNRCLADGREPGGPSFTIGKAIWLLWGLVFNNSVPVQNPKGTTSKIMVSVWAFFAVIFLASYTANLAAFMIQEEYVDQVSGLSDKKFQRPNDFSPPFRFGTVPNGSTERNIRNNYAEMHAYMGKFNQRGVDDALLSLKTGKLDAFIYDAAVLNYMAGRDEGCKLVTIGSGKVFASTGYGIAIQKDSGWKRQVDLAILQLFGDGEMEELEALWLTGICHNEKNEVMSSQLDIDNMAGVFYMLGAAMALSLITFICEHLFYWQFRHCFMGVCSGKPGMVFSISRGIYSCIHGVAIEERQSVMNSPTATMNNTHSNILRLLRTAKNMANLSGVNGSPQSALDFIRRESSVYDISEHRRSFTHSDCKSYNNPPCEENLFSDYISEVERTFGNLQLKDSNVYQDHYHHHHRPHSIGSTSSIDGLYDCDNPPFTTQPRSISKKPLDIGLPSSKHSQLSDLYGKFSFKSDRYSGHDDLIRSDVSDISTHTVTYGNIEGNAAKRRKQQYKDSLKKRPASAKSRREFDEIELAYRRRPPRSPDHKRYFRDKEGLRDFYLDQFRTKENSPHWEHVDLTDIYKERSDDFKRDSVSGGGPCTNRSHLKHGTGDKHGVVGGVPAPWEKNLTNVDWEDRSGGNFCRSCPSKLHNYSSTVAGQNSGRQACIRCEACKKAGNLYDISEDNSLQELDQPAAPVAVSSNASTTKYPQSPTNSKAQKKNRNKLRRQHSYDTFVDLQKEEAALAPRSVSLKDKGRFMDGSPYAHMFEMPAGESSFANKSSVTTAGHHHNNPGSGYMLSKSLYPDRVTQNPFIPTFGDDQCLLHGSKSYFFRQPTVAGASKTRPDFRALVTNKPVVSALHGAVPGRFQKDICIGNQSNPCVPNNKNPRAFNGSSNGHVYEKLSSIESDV

Consider `C[C@H](N[C@@H](c1cccc2[nH]c(=O)c(=O)[nH]c12)P(=O)(O)O)c1ccc(Br)cc1` [NVP-AAM077], for which the IC50 turned out to be 119 nM in assay [1] and 10 nM in assay [2].
